Data from patent publication US8039512B2, “Biologically active oils” (priority 2003, dated 2011).

Experiments:
[1] = system: Secreted PGE2 from 3T3 cells; assay: In-vitro prostaglandin PGE2 (COX pathways) EIA assay; format: cell-based, mouse; conditions: 50 µM
Method: This assay was performed using Cayman chemicals Prostaglandin E2 EIA Kit-Monoclonal, according to kit protocol. Each sample was assayed at three dilutions in duplicate. […] In particular the two samples produced dose dependent inhibition of secreted PGE2 from the mouse fibroblast cell line equivalent to or better than aspirin under the test conditions.

[2] = system: 5-lipoxygenase pathway of human neutrophils (PMN); assay: Lipoxygenase pathways (leukotrienes and HETE) HPLC assay in isolated PMN; format: cell-based; conditions: for 5-HETE synthesis / Isomer 1 (all trans isomer of LTB4) synthesis / Isomer 2 (all trans isomer of LTB4) synthesis / LTB4 synthesis: human PMN, arachidonic acid + A23187
Source text: The HPLC assay readily quantifies 5-HETE, 12-HETE, LTB4, and the two all trans-isomers of LTB-4, and thus gives quantitative data on the relative activities of the enzymes in the 5-lipoxygenase of neutrophils, as well as data on the 12-lipoxygenase pathway of platelets. Thus it is an ideal system to test potential inhibitors of these pathways.
The effects of inhibitory compounds may be tested on isolated human PMN and platelets, in which the pathways are activated by treating the PMN or platelets with arachidonic acid and the calcium ionophore A23187. The addition of arachidonic acid eliminates the PLA-2 step, and provides high levels of substrate for the pathway. Furthermore, such activation is known to maximally drive the pathway to produce the greatest synthesis of all the metabolites, and thus is also the least sensitive to inhibition.
All samples were dissolved in ethanol to give stock solutions of 10 mg/mL. Two further dilutions of each stock solution were made in ethanol at 5 and 1 mg/mL, making 10 test samples in all. […]
1. Up to 100 mL of blood was taken from a normal volunteer and anticoagulated with EDTA. Two mL of 4.5% EDTA in water was mixed with each 10 mL of blood.
2. A further 2 mL of 6.0% Dextran T500 was added to each of the 12 mL mixtures in 1, and placed in a water bath at 37° C., to sediment the red blood cells.
3. Following sedimentation in 2, the supernatant was carefully laid over 5 mL of Percoll, density 1.070. This was then spun at 500 g for 35 mins.
4. All the cells (PMN and remaining RBC) below the Percoll interface were removed with a plastic pipette and diluted at least 3-fold with Ca^2+/Mg^2+-free Dulbecco's phosphate buffer, and centrifuged at 600 g for 10 mins.
5. Following 4, the supernatant was carefully aspirated, and the pellet gently mixed with 1 mL of Ca^2+/Mg^2+-free Dulbecco's phosphate buffer by aspiration/deaspiration into a 1 ml plastic disposable pipette. A further 40 mL of Ca^2+/Mg^2+-free Dulbecco's phosphate buffer was then added and mixed by inversion. The cell suspension was then centrifuged at 600 g for 10 mins. 6. Following centrifugation, the supernatant was removed and the PMN pellet lysed with 10 mL of a 0.2% cold sodium chloride solution for 20 secs, followed by the addition of 10 mL of a 1.6% cold sodium chloride solution, and centrifuged at 600 g for 10 mins. 7. Following 6, the PMN pellet was vigorously mixed with 1 mL of Hank's buffer by rapid aspiration/deaspiration into a 1 mL plastic disposable pipette, and then finally suspended in Hank's buffer at 2.4×10^6 PMN/ml (as measured using a Coulter counter), in preparation for the leukotriene assay. Activation of Leukotriene Pathway 1. 1 mL of PMN suspension (2.4×10^6 PMN/ml) was transferred to a 13 mL glass tube (chromic acid washed) and placed in a water bath at 37° C. for 5 min prewarming. 2. Following prewarming, at time zero, 10 μL of each test compound in methanol (or equivalent volumes of methanol as control) was added to quadruplicate tubes over a 20 sec period. 3. At 5 min, 5 µL of 2 mM arachidonic acid (10 μM final) was added (4 tubes/20 secs). 4. At 10 min, 5 µL of 1 mM calcium ionophore (A23187) (5 μM final) was added (4 tubes/20 secs). 5. At 15 min the reaction was terminated by the addition of 100 μL 100 mM citric acid. This lowers the pH of the aqueous phase to less than 3, which is necessary for the extraction of the leukotrienes into the organic phase. 6. The pH of several samples was checked to ensure pH<3.0. (This is important). 7. 40 ng Prostaglandin B2 and 166 ng 15-HETE were added to each tube as the internal standard for LTB4 and 5-HETE respectively, and samples were mixed. 8. For Standard Curves LTB4 [1 ng/μl] (for a standard curve in the range 0-50 ng) and 5-HETE [5 ng/μL] (standard curve range 0-250 ng) were added to tubes containing 1 mL PMN, 100 μL of 100 mM citric acid and 40 ng PGB2 and 166 ng 15-HETE. 9. All tubes were vortexed. 10. […]

CC(=O)Oc1ccccc1C(=O)O [Aspirin]
% Control (secreted PGE2) ([1]; A23187): 72.6 % Control
% Control (secreted PGE2) ([1]; A23187, listed as aspirin): around 72.6 % Control

CCC(C)CCCCCCCCCCC(=O)O (centres unmarked) [Sample 12-MTA, 12-methyl tetradecanoic acid]
5-HETE synthesis ([2]; 2 μg/mL): 55 ± 9 percentage of the methanol control
Isomer 1 (all trans isomer of LTB4) synthesis ([2]; 2 μg/mL): 73 ± 13 percentage of the methanol control
Isomer 2 (all trans isomer of LTB4) synthesis ([2]; 2 μg/mL): 60 ± 17 percentage of the methanol control
LTB4 synthesis ([2]; 2 μg/mL): 84 ± 5 percentage of the methanol control
5-HETE synthesis ([2]; 5 μg/mL): 65 ± 3 percentage of the methanol control
Isomer 1 (all trans isomer of LTB4) synthesis ([2]; 5 μg/mL): 101 ± 12 percentage of the methanol control
Isomer 2 (all trans isomer of LTB4) synthesis ([2]; 5 μg/mL): 97 ± 9 percentage of the methanol control
LTB4 synthesis ([2]; 5 μg/mL): 101 ± 12 percentage of the methanol control
5-HETE synthesis ([2]; 10 μg/mL): 46 ± 11 percentage of the methanol control
Isomer 1 (all trans isomer of LTB4) synthesis ([2]; 10 μg/mL): 59 ± 14 percentage of the methanol control
Isomer 2 (all trans isomer of LTB4) synthesis ([2]; 10 μg/mL): 68 ± 14 percentage of the methanol control
LTB4 synthesis ([2]; 10 μg/mL): 70 ± 17 percentage of the methanol control
5-HETE synthesis ([2]; 20 μg/mL): 2 ± 4 percentage of the methanol control
Isomer 1 (all trans isomer of LTB4) synthesis ([2]; 20 μg/mL): 0 percentage of the methanol control
Isomer 2 (all trans isomer of LTB4) synthesis ([2]; 20 μg/mL): 0 percentage of the methanol control
LTB4 synthesis ([2]; 20 μg/mL): 0 percentage of the methanol control
5-HETE synthesis ([2]; 50 μg/mL): 0 percentage of the methanol control
Isomer 1 (all trans isomer of LTB4) synthesis ([2]; 50 μg/mL): 0 percentage of the methanol control
Isomer 2 (all trans isomer of LTB4) synthesis ([2]; 50 μg/mL): 0 percentage of the methanol control
LTB4 synthesis ([2]; 50 μg/mL): 0 percentage of the methanol control
Inhibition of the 5-LOX pathway ([2]; as low as 20 μg/mL): 100%
